Source: patent US12551532B2, “Long-acting amylin receptor agonists and uses thereof” (Eli Lilly and Company, priority 2021, dated 2026)
Starred links: 1 amine or outer side, 2 acyl side, 3 side chain; linkers in the order of their positions; H or OH if unused. Positions of bridges follow the written chain, without caps; N, C: chain ends. Non-standard residues stand in square brackets, D forms with d. Residues, ends and D or L forms follow the SMILES beside them. Groups on a side chain read outwards from the residue. *: point of attachment. C20 diacid = O=C(O)CCCCCCCCCCCCCCCCCCC(=O)*; γGlu = O=C(O)[C@H](CCC(=O)[*:2])N[*:1]; αMeL = CC(C)C[C@](C)(N)C(=O)O; Orn = NCCC[C@H](N)C(=O)O; CH2 = C([*:1])[*:2]

Tests used:
[1] = Food intake and body weight in normal rats, single SC dose; type: in vivo, Sprague Dawley rats; conditions: for Δ Body Weight: 96 hours post dose vs initial weights; for Cumulative Food Intake Change vs Vehicle: 96 hours post dose vs vehicle
Procedure: Male Sprague Dawley rats from Envigo RMS (Indianapolis, IN) are maintained on a chow diet (2014; Teklad Global, Envigo RMS, Indianapolis, IN) and single housed in a temperature-controlled facility (72.0° F.; 22.2° C.) with a reversed 12:12-hour light cycle (10 AM OFF) and free access to food and water. At 10 weeks of age, non-fasted body weights and initial food weights are recorded, and animals are administered a single subcutaneous injection (SC) of vehicle or acylated peptide (1 mL/kg), followed by daily measurements of body weight and food intake for 4 days post dose. Area under the curve analysis (AUC) is calculated for both body weight and food intake versus vehicle.

[2] = Body weight and body composition in diet-induced obese rats, 2-week study; type: in vivo, Long Evan rats; conditions: DIO rats, at 2 weeks vs initial
Procedure: Male Long Evan rats from Envigo RMS (Indianapolis, IN) at 14 weeks of age are put on a high fat diet (40% of kcal from fat, TD.95217; Envigo RMS, Indianapolis, IN) until 35-45 weeks old. Animals are individually housed in a temperature-controlled facility (75.0° F.; 23.9° C.) with a 12-hour reverse light/dark cycle (lights OFF at 10 AM) and free access to food and water. Body weights are recorded and body composition (fat mass) is determined using Quantitative Nuclear Magnetic Resonance Analysis (ECHO MRI, 3-1 Composition Analyzer; Echo Medical Systems, Houston, TX), followed by randomization into experimental groups (n=5). Rats are administered subcutaneous injections of vehicle or peptide (1 mL/kg) every three days (day 1, 4, 7, 10, and 13). Daily body weights are recorded and changes at end of treatment (day 14) are calculated as percentages versus pre-treatment weights (day 1). Body composition is determined on day 14, and changes in fat mass and fat-free mass (body weight−fat mass) are calculated from pre-treatment values as gram changes.

[3] = molecular target: T1, human calcitonin receptor (hCTR) (Homo sapiens, UniProt P30988); assay: hCTR competitive radioligand binding filter assay (125I-hCT); conditions: ± SE; membranes of hCTR overexpressing cells
T1 construct: expressed in transfected cells; host or cells: membranes of UM-UC-3 (UMUC3) cells stably expressing human CTa
T1 sequence (P30988 25-474): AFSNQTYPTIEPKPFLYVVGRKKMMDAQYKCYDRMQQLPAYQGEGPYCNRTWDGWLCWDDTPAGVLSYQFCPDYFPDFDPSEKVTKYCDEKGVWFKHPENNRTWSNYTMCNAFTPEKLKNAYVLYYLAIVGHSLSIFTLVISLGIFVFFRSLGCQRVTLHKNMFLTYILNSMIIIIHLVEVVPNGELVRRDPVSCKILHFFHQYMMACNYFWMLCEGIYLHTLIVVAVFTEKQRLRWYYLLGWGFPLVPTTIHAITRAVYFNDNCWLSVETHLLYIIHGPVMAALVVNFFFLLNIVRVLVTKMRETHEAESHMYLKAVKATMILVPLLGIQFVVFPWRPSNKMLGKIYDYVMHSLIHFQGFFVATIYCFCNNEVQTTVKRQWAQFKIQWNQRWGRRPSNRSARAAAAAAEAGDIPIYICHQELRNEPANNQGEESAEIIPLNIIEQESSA
Procedure: (§1) The equilibrium dissociation constants (Kd) for the various receptor/radioligand interactions are determined from saturation binding analysis using the same reagents and buffers as described below for compound testing.
The receptor binding affinity (Ki) of rAMY, hCT, and hAMY agonist peptides on hCTR membranes is determined from a competitive radioligand binding filter assay.

[4] = tested on: pre-existing antibodies (ADA) in normal human serum; assay: Pre-existing reactivity (ACE assay format); conditions: >50 donors; treatment-naive normal human serum
Procedure: This assay assesses the presence of pre-existing antibodies (ADA) against the tested molecules in treatment-naive normal human serum (NHS). Diluted NHS is incubated overnight on a Pierce Streptavidin plate coated with biotinylated tested molecules. On the following day, the captured binding proteins are acid eluted, hard-coated to a Mesoscale (MSD) plate, and detected with a combination of biotin-labeled molecule and ruthenium-labeled streptavidin. If anti-drug antibodies are present, they will bind the labeled drug and the resulting signal is referred to as Tier 1 signal (expressed as electrochemiluminescence). This signal is confirmed in Tier 2 by adding excess unlabeled tested molecule in the detection step, which results in the suppression of the Tier 1 signal. The presence of pre-existing anti-drug antibodies is expressed as magnitude of the 90th percentile of Tier 2 inhibition. The 90th percentile of Tier 2 inhibition, is a statistical tool to assess the magnitude of specificity of Tier 1 reactivity. This 90th percentile is used to rank molecules in terms of ADA risk.

hAMY1R = molecular target: T2, hAMY1R (Homo sapiens, UniProt O60894+P30988); assay: hAMY1R competitive radioligand binding filter assay (125I-rAMY); conditions: ± SE; membranes of hAMY1R overexpressing cells
T2 construct: expressed in transfected cells
T2 sequence (O60894 27-148 partner, one chain of several): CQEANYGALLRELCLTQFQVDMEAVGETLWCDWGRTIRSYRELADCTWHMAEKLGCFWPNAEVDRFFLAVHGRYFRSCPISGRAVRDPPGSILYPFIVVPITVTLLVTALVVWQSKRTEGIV
Procedure: as §1
The receptor binding affinity (Ki) of rAMY, hCT, and hAMY agonist peptides are determined from a competitive radioligand binding filter assay. The assay buffer consists of (in mM) 50 HEPES, pH 7.1, 5 MgCl2, 5 KCl, 0.2% (w/v) bacitracin, 0.003% (w/v) saponin and is used to dilute radioligand and membrane preparation. Binding reactions are carried out in 0.1 mL total reaction volume in a polystyrene 96 deep-well assay block. […] Test compounds and non-specific binding (NSB—defined as 300 nM rAMY) are added to aliquots of radioactivity buffer. […] The binding reaction is initiated by the addition of 0.05 mL of 200 μg/mL hAMY1R diluted in assay buffer to the radioactivity. Assay blocks are gently vortexed, sealed with parafilm, and incubated at RT for approximately 20 hours. […] At the end of the incubation, bound ligand is separated from free by addition of an ice cold quench buffer consisting of 100 mM NaCl, 50 mM TRIS-HCl pH 7.1 and immediately collected over the filter mat by vacuum filtration with a TomTec 96 well filter harvester using the following filter protocol (Dry time, 7; Cycle 3 repeat, 0; Wash Time, 1; Soak Time, 1; 1st Aspirate Time, 4; Wash/Aspirate Time, 7; 2nd Aspirate, 4; air pressure 2 PSI).

[5] = 100 nmol/kg SC every three days

CC[C@H](C)[C@H](NC(=O)[C@@H]1CCCN1C(=O)CNC(=O)[C@H](Cc1ccccc1)NC(=O)[C@H](CC(N)=O)NC(=O)[C@H](Cc1c[nH]cn1)NC(=O)[C@H](CO)NC(=O)[C@H](CO)NC(=O)[C@H](CCCNC(=N)N)NC(=O)[C@@H](NC(=O)[C@H](CC(C)C)NC(=O)[C@H](Cc1ccccc1)NC(=O)[C@H](CCC(=O)O)NC(=O)[C@H](C)NC(=O)[C@](C)(CC(C)C)NC(=O)[C@H](CCCN)NC(=O)CNC(=O)[C@@H](NC(=O)[C@H](C)NC(=O)[C@@H]1CSCSC[C@H](NC(=O)[C@@H](N)CCCCNC(=O)CC[C@H](NC(=O)CC[C@H](NC(=O)CCCCCCCCCCCCCCCCCCC(=O)O)C(=O)O)C(=O)O)C(=O)N[C@@H](CCC(=O)O)C(=O)N[C@@H]([C@@H](C)O)C(=O)N[C@@H](C)C(=O)N[C@@H]([C@@H](C)O)C(=O)N1)[C@@H](C)O)C(C)C)C(=O)N[C@@H](CC(C)C)C(=O)N1CCC[C@H]1C(=O)N1CCC[C@H]1C(=O)N[C@H](C(=O)N[C@@H](CCC(=O)O)C(=O)N[C@H](C(=O)NCC(=O)N[C@@H](CO)C(=O)N[C@@H](CC(N)=O)C(=O)N[C@H](C(=O)N[C@@H](Cc1ccc(O)cc1)C(N)=O)[C@@H](C)O)C(C)C)[C@@H](C)O [Compound VIII] (H-K([γGlu-γGlu-C20 diacid])CETATCATG[Orn][αMeL]AEFLVRSSHNFGPILPPTEVGSNTY-NH2; linker 2-7 via CH2)
Δ Body Weight ([1]; 0.1 nmol/kg SC single dose): 2.0%
Cumulative Food Intake Change vs Vehicle ([1]; 0.1 nmol/kg SC single dose): 1.3%
Δ Body Weight ([1]; 0.3 nmol/kg SC single dose): 1.6%
Cumulative Food Intake Change vs Vehicle ([1]; 0.3 nmol/kg SC single dose): 3.2%
Δ Body Weight ([1]; 1 nmol/kg SC single dose): −1.0%
Cumulative Food Intake Change vs Vehicle ([1]; 1 nmol/kg SC single dose): −17.5%
Δ Body Weight ([1]; 3 nmol/kg SC single dose): −3.9%
Cumulative Food Intake Change vs Vehicle ([1]; 3 nmol/kg SC single dose): −37.7%
Δ Body Weight ([1]; 10 nmol/kg SC single dose): −7.2%
Cumulative Food Intake Change vs Vehicle ([1]; 10 nmol/kg SC single dose): −58.5%
Δ Body Weight ([1]; 30 nmol/kg SC single dose): −10.8%
Cumulative Food Intake Change vs Vehicle ([1]; 30 nmol/kg SC single dose): −67.0%
Δ Body Weight ([1]; 100 nmol/kg SC single dose): −13.8%
Cumulative Food Intake Change vs Vehicle ([1]; 100 nmol/kg SC single dose): −75.2%
Δ Body Weight ([1]; 300 nmol/kg SC single dose): −13.6%
Cumulative Food Intake Change vs Vehicle ([1]; 300 nmol/kg SC single dose): −74.9%
Δ Body Weight ([1]; 1000 nmol/kg SC single dose): −18.9%
Cumulative Food Intake Change vs Vehicle ([1]; 1000 nmol/kg SC single dose): −84.7%
Δ Body Weight ([2]; 1 nmol/kg SC every three days): −6.0%
Δ Fat Mass ([2]; 1 nmol/kg SC every three days): -36.6 g
Δ Fat-Free Mass ([2]; 1 nmol/kg SC every three days): -4.7 g
Δ Body Weight ([2]; 10 nmol/kg SC every three days): −9.0%
Δ Fat Mass ([2]; 10 nmol/kg SC every three days): -54.3 g
Δ Fat-Free Mass ([2]; 10 nmol/kg SC every three days): -7.2 g
Δ Body Weight [2, 5]: −11.5%
Δ Fat Mass [2, 5]: -56.4 g
Δ Fat-Free Mass [2, 5]: -26.9 g
Ki [3]: 927 ± 120 nM
Pre-existing Reactivity 90th percentile T2 inhibition [4]: 51.4%
Ki (hAMY1R): 0.0435 ± 0.0072 nM
